Results as given in the supplement of paper PMC10307832.

Columns and labels:
Assay in all cases: relative viability (nuclei count vs DMSO), 5 days (fraction); higher = more cells survive
Kobe2602 + Lapatinib = compound: C1=CC(=CC=C1NC(=S)NNC2=C(C=C(C=C2[N+](=O)[O-])C(F)(F)F)[N+](=O)[O-])F [Kobe2602] + CS(=O)(=O)CCNCc1ccc(-c2ccc3ncnc(Nc4ccc(OCc5cccc(F)c5)c(Cl)c4)c3c2)o1 [Lapatinib] (partner 2 µM)
Summary of the method: (§1)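 Lung cancer cell lines in 1536-well plates got either a single drug or a fixed anchor-drug dose together with five library-drug doses (not always all listed) in √10 steps, by pin tool, on the day after seeding. Nuclei were counted after 5 days, and relative viability is the treated-to-vehicle ratio of nuclei counts. Values are medians of duplicate plates.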

Cabozantinib + Lapatinib = compound: COc1cc2nccc(Oc3ccc(NC(=O)C4(C(=O)Nc5ccc(F)cc5)CC4)cc3)c2cc1OC [Cabozantinib] + CS(=O)(=O)CCNCc1ccc(-c2ccc3ncnc(Nc4ccc(OCc5cccc(F)c5)c(Cl)c4)c3c2)o1 [Lapatinib] (partner 2 µM)
Summary of the method: as §1

Cabozantinib + Dasatinib = compound: COc1cc2nccc(Oc3ccc(NC(=O)C4(C(=O)Nc5ccc(F)cc5)CC4)cc3)c2cc1OC [Cabozantinib] + Cc1nc(Nc2ncc(C(=O)Nc3c(C)cccc3Cl)s2)cc(N2CCN(CCO)CC2)n1 [Dasatinib] (partner 0.075 µM)
Summary of the method: as §1

[1] = compound: COc1cc2nccc(Oc3ccc(NC(=O)C4(C(=O)Nc5ccc(F)cc5)CC4)cc3)c2cc1OC [Cabozantinib] + CC(=O)Nc1cccc(-n2c(=O)n(C3CC3)c(=O)c3c(Nc4ccc(I)cc4F)n(C)c(=O)c(C)c32)c1 [Trametinib] (partner 0.02 µM)
Summary of the method: as §1

Row | Cell Line | relative viability (Kobe2602 + Lapatinib; first compound 0.2 µM) | relative viability (Kobe2602 + Lapatinib; first compound 0.6325 µM) | relative viability (Kobe2602 + Lapatinib; first compound 2 µM) | relative viability (Kobe2602 + Lapatinib; first compound 6.325 µM) | relative viability (Kobe2602 + Lapatinib; first compound 20 µM) | relative viability (Cabozantinib + Lapatinib; first compound 0.02 µM) | relative viability (Cabozantinib + Lapatinib; first compound 0.06325 µM) | relative viability (Cabozantinib + Lapatinib; first compound 0.2 µM) | relative viability (Cabozantinib + Lapatinib; first compound 0.6325 µM) | relative viability (Cabozantinib + Lapatinib; first compound 2 µM) | relative viability (Cabozantinib + Dasatinib; first compound 0.02 µM) | relative viability (Cabozantinib + Dasatinib; first compound 0.06325 µM) | relative viability (Cabozantinib + Dasatinib; first compound 0.2 µM) | relative viability (Cabozantinib + Dasatinib; first compound 0.6325 µM) | relative viability (Cabozantinib + Dasatinib; first compound 2 µM) | relative viability ([1]; first compound 0.02 µM) | relative viability ([1]; first compound 0.06325 µM) | relative viability ([1]; first compound 0.2 µM) | relative viability ([1]; first compound 0.6325 µM) | relative viability ([1]; first compound 2 µM)
1 | HOP-62 | 1.06 | 1.04 | 0.951 | 0.94 | 1.04 | 1.05 | 1.3 | 1.19 | 1.2 | 1.14 | 0.603 | 0.703 | 0.529 | 0.579 | 0.41 | 0.413 | 0.389 | 0.4 | 0.376 | 0.349
2 | NCI-H838 | 0.905 | 1.14 | 0.96 | 1 | 0.87 | 1.01 | 0.997 | 0.895 | 0.881 | 0.877 | 0.251 | 0.309 | 0.312 | 0.338 | 0.281 | 0.487 | 0.533 | 0.496 | 0.51 | 0.498
3 | LK-2 | 1.02 | 0.857 | 0.961 | 0.83 | 1.09 |  | 1.15 | 0.929 | 0.948 | 0.856 |  | 0.247 |  | 0.341 | 0.46 | 0.678 | 0.836 | 0.717 | 0.863 | 0.781
4 | BEN | 0.671 | 0.935 | 0.782 | 0.69 | 0.811 | 0.702 | 0.814 | 0.846 | 0.67 | 0.63 | 0.294 | 0.391 | 0.313 | 0.318 | 0.232 | 0.979 | 1.08 | 0.998 | 0.982 | 0.77
5 | NCI-H23 | 0.999 | 1.36 | 1.08 | 1.05 | 1.07 |  | 1.37 | 1.07 | 1.04 | 0.885 |  | 1.17 | 0.808 | 0.936 | 0.598 |  | 0.358 | 0.42 | 0.377 | 0.389
6 | NCI-H1944 | 0.878 | 0.944 | 0.837 | 0.857 | 0.787 |  | 0.858 | 0.793 | 0.756 | 0.884 | 0.183 | 0.233 | 0.206 | 0.221 | 0.216 | 0.441 | 0.401 | 0.386 | 0.416 | 0.413
7 | NCI-H1792 | 0.963 | 0.878 | 0.992 | 0.928 | 0.978 | 0.78 | 1.13 | 0.846 | 0.862 | 0.85 |  | 0.878 | 0.77 | 0.727 | 0.644 |  | 0.483 | 0.455 | 0.417 | 0.32
8 | NCI-H2085 | 0.749 | 0.751 | 0.779 | 0.776 | 0.879 | 0.793 | 0.881 | 0.676 | 0.728 | 0.643 | 0.285 | 0.268 | 0.244 | 0.218 | 0.216 | 0.876 | 0.6 | 0.571 | 0.463 | 0.398
9 | LC-2-ad | 1.03 | 0.893 | 0.764 | 0.978 | 0.923 | 0.938 | 1.04 | 0.876 | 0.622 | 0.253 |  | 0.641 | 0.492 | 0.295 | 0.283 | 0.924 | 0.948 | 0.92 | 0.761 | 0.48
10 | 201T | 0.986 | 1.1 | 1.07 | 1.01 | 1.04 | 1.02 | 1.14 | 0.991 | 0.999 | 1.08 | 0.385 | 0.549 | 0.573 | 0.534 | 0.545 | 0.71 | 0.731 | 0.686 | 0.729 | 0.727
11 | NCI-H2023 | 0.833 | 0.914 | 0.811 | 0.815 | 0.739 | 0.473 | 0.74 | 0.708 | 0.552 | 0.591 | 0.45 | 0.531 | 0.369 | 0.311 | 0.248 | 0.497 | 0.707 | 0.445 | 0.381 | 0.293
12 | NCI-H1793 | 1.03 | 0.663 | 0.621 | 0.623 | 0.78 | 0.95 | 1.15 | 0.571 | 0.508 | 0.594 | 0.436 | 0.519 | 0.343 | 0.336 | 0.378 | 0.489 | 0.428 |  | 0.432 | 0.341
13 | NCI-H2347 | 0.939 | 0.963 | 0.913 | 0.988 | 0.909 | 0.883 | 0.951 | 1.03 | 0.824 | 0.925 | 0.3 | 0.283 | 0.321 |  | 0.296 | 0.252 | 0.296 | 0.269 | 0.249 | 0.268
14 | LXF-289 | 0.872 | 0.891 | 0.88 | 0.874 | 0.873 | 0.91 | 0.922 | 0.896 | 0.918 | 0.92 | 0.126 | 0.206 | 0.155 | 0.117 | 0.0913 | 0.735 | 0.654 | 0.659 | 0.719 | 0.695
15 | EKVX | 0.207 | 0.223 | 0.221 | 0.184 | 0.267 | 0.172 | 0.207 | 0.203 | 0.21 | 0.191 | 0.53 | 0.592 |  | 0.488 | 0.461 | 0.377 | 0.406 | 0.249 | 0.409 | 0.351
16 | NCI-H650 | 0.852 | 1.07 | 1.19 | 1.04 | 0.99 | 0.787 | 1.06 | 1.23 | 0.491 | 0.766 |  | 0.504 | 0.452 | 0.49 | 0.445 | 0.923 | 0.998 | 1.16 | 0.984 | 0.876
17 | NCI-H1734 | 1.06 | 1.11 | 1.14 | 1.26 | 1.03 | 0.98 | 1.09 | 0.984 | 1.08 | 1.01 | 0.389 | 0.452 | 0.467 | 0.402 | 0.34 | 0.738 | 0.665 | 0.716 | 0.623 | 0.597
